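These data come from cells grown in 96-well plates and exposed to compound for 48 hours at five concentrations. At the GI50, growth is halved. The concentration for full growth arrest is given as TGI.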 A value given as a limit tells only on which side of the number the result lay.

The results in this text go back to PubChem BioAssay (NCI).

Test systems include ACHN renal; HOP-62 NSCLC; NCI-H226 lung; NCI-H460 lung; RXF 393 renal; SK-MEL-2 melanoma; SK-OV-3 ovarian; MDA-MB-435; NCI/ADR-RES ovarian; MCF7 breast.
What all share (assay): NCI tumour cell line growth inhibition, 48 h

With `C=C1CC2C(=O)N(c3ccccc3)C(=O)C2CC1n1[nH]c(=O)n(Cc2ccccc2)c1=O` (stereo not drawn), the TGI in the experiment on ACHN renal, with HOP-62 NSCLC, in the experiment with NCI-H226 lung, in the experiment with NCI-H460 lung, with RXF 393 renal and with SK-MEL-2 melanoma was above 100 µM throughout. For the same molecule, the TGI in the experiment on SK-OV-3 ovarian is above 100 µM.
For the molecule `COC(=O)C(=O)C(C(=O)C(=O)Nc1cc([N+](=O)[O-])ccc1C#N)c1nc2ccccc2[nH]c1=O` (stereo not drawn), the TGI with ACHN renal, in the experiment on HOP-62 NSCLC, with NCI-H226 lung, in the experiment on NCI-H460 lung, in the experiment on RXF 393 renal and in the experiment on SK-OV-3 ovarian was above 100 µM in each case.
Take `CCNC(=S)N/N=C/c1ccccn1`: the TGI in the experiment on ACHN renal is 70.7 µM; in the experiment with HOP-62 NSCLC, 54 µM; in the experiment on MDA-MB-435, above 100 µM; in the experiment on NCI-H226 lung, 22 µM; in the experiment on NCI-H460 lung, 27.8 µM; in the experiment on NCI/ADR-RES ovarian, above 100 µM. Moreover, the TGI in the experiment with RXF 393 renal, in the experiment on SK-MEL-2 melanoma and with SK-OV-3 ovarian was above 100 µM each time.
As for `O=c1oc2ccccc2c2nc3ccccc3cc12`, the TGI was above 100 µM in the experiment with ACHN renal; above 100 µM with MDA-MB-435; above 100 µM in the experiment with NCI-H226 lung; above 100 µM in the experiment on NCI-H460 lung; above 100 µM in the experiment on NCI/ADR-RES ovarian; 91.3 µM with RXF 393 renal. Further, the TGI in the experiment on SK-MEL-2 melanoma and in the experiment with SK-OV-3 ovarian was above 100 µM throughout.
`CC12CCC(C/C1=N\NC(N)=O)C2(C)C` (stereo not drawn): the TGI with ACHN renal, with HOP-62 NSCLC, with MCF7 breast, with MDA-MB-435, with NCI-H226 lung and with NCI-H460 lung was above 100 µM each time. For the same molecule, the TGI with NCI/ADR-RES ovarian, in the experiment on SK-MEL-2 melanoma and in the experiment with SK-OV-3 ovarian was above 100 µM each time.
In the case of `COc1cc2c(cc1O)CC[n+]1cc3c(OC)c(OC)ccc3cc1-2`, the TGI in the experiment on ACHN renal, in the experiment with MCF7 breast, in the experiment on MDA-MB-435, in the experiment with NCI-H226 lung, in the experiment on NCI-H460 lung and in the experiment on NCI/ADR-RES ovarian was above 100 µM in each case. Moreover, the TGI with SK-MEL-2 melanoma and in the experiment with SK-OV-3 ovarian was above 100 µM in each case.
In the case of `Cc1ccsc1C(=S)Nc1ccc(Cl)c(C(=O)OC(C(C)C)C(C)C)c1`, the TGI in the experiment on ACHN renal was above 100 µM; in the experiment on MCF7 breast, above 100 µM; in the experiment with MDA-MB-435, 63.1 µM; in the experiment on NCI-H226 lung it was above 100 µM; in the experiment with NCI-H460 lung, above 100 µM; in the experiment with NCI/ADR-RES ovarian, above 100 µM. Moreover, the TGI is 25.8 µM in the experiment with SK-MEL-2 melanoma and above 100 µM in the experiment on SK-OV-3 ovarian.
In the case of `COc1cc(-c2c3c(cc4c2OCO4)[C@@H](Nc2ccc4c(c2)Cc2cc(N[C@@H]5c6cc7c(cc6C(c6cc(OC)c(O)c(OC)c6)[C@H]6C(=O)OC[C@H]56)OCO7)ccc2-4)[C@H]2COC(=O)[C@@H]2C3)cc(OC)c1O` (stereo partly drawn), the TGI in the experiment with ACHN renal was above 100 µM; in the experiment on HOP-62 NSCLC, 57.5 µM; in the experiment with MCF7 breast, above 100 µM; in the experiment on MDA-MB-435 it was 33.1 µM; with NCI-H226 lung it was above 100 µM; with NCI-H460 lung it was above 100 µM. Besides, the TGI with NCI/ADR-RES ovarian was determined as 42.2 µM; in the experiment on SK-OV-3 ovarian, 41.1 µM.
In the case of `COC(=O)[C@H]1C=C[C@H](OC2OC(COC(C)=O)C(OC(C)=O)C(OC(C)=O)C2OC(C)=O)n2c(=O)n(-c3ccccc3)c(=O)n21` (stereo partly drawn), the TGI with ACHN renal was 3.08 µM; with HOP-62 NSCLC, 21.1 µM; with MDA-MB-435, 16.6 µM; in the experiment on NCI-H226 lung, 20.5 µM; in the experiment on NCI-H460 lung it was 10.5 µM; with NCI/ADR-RES ovarian, 61.8 µM. In addition, the TGI in the experiment on RXF 393 renal turned out to be 3.73 µM; in the experiment with SK-MEL-2 melanoma, 30.6 µM; in the experiment with SK-OV-3 ovarian it was 32.6 µM.
Consider `Cc1ncc([N+](=O)[O-])n1CCNC(=O)CCCCn1ccnc1[N+](=O)[O-]`, for which the TGI in the experiment on ACHN renal, in the experiment on HOP-62 NSCLC, with MCF7 breast, in the experiment on MDA-MB-435, in the experiment on NCI-H226 lung and with NCI-H460 lung was above 100 µM in each case. Also, the TGI with NCI/ADR-RES ovarian, in the experiment on SK-MEL-2 melanoma and with SK-OV-3 ovarian was above 100 µM throughout.
With `COc1ccc(/C=C/C(=O)c2sc(-n3nc(-c4ccccc4)cc3-c3ccccc3)nc2C)cc1OC`, the TGI with ACHN renal, with HOP-62 NSCLC, in the experiment with NCI-H226 lung, in the experiment with NCI-H460 lung, in the experiment with RXF 393 renal and in the experiment with SK-MEL-2 melanoma was above 100 µM in each case. The molecule also returned a TGI with SK-OV-3 ovarian above 100 µM.
As for `O=C(O)c1cc2ccccc2c(S(=O)(=O)O)c1O`, the TGI with ACHN renal, with HOP-62 NSCLC, in the experiment with MCF7 breast, in the experiment on MDA-MB-435, in the experiment with NCI-H460 lung and with NCI/ADR-RES ovarian was above 100 µM in each case. In addition, the TGI in the experiment on RXF 393 renal, in the experiment on SK-MEL-2 melanoma and with SK-OV-3 ovarian was above 100 µM in each case.
Turning to `Nc1nc(Nc2ccc(OCc3cccc(F)c3)cc2)c2c(n1)[nH]c1ccc(O)cc12`, the GI50 in the experiment with ACHN renal was 3.16 µM; with MCF7 breast, 2.87 µM; with MDA-MB-435, 3.68 µM; with NCI-H226 lung, 24.2 µM; in the experiment on NCI-H460 lung, 3.25 µM; with NCI/ADR-RES ovarian it was 9.46 µM. Further, the GI50 in the experiment on RXF 393 renal is 1.78 µM; in the experiment with SK-MEL-2 melanoma, 2.61 µM; with SK-OV-3 ovarian, 17.1 µM. In addition, the TGI in the experiment with ACHN renal was found to be 12 µM; in the experiment with MCF7 breast, 11.8 µM; in the experiment on MDA-MB-435 it was 14.1 µM; in the experiment with NCI-H226 lung it was 54.6 µM; in the experiment on NCI-H460 lung, 9.37 µM; with NCI/ADR-RES ovarian, 32 µM. Moreover, the results for the TGI in the experiment with RXF 393 renal, in the experiment with SK-MEL-2 melanoma and in the experiment on SK-OV-3 ovarian were 3.55 µM, 7.71 µM and 31.3 µM, respectively.
With `COc1cc(CCCOC2OC(COC3OCC(O)C(O)C3O)C(O)C(O)C2O)cc2cc(-c3ccc4c(c3)OCO4)oc12` (stereo not drawn), the TGI was above 175 µM in the experiment with HOP-62 NSCLC; above 175 µM in the experiment on MCF7 breast; above 175 µM in the experiment on NCI-H226 lung; above 175 µM with NCI-H460 lung; above 175 µM in the experiment on NCI/ADR-RES ovarian; above 114 µM in the experiment on RXF 393 renal. The TGI in the experiment on SK-MEL-2 melanoma and with SK-OV-3 ovarian was above 175 µM throughout.
